Like-named read-outs stand apart in the source and are kept apart here.
Assays:
[1] = test system: human G12D mutant KRAS-positive pancreatic cancer line AsPC-1; experiment: Test Example 3: non-anchorage-dependent cell growth inhibition, spheroid 3D cell culture; type: cell-based; details: AsPC-1 spheroid 3D culture, 6 days, CellTiter Glo 2.0
Outline: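 AsPC-1 cells were grown as spheroids (5×10^2 cells/well, low-adhesion round-bottom plates). Next day they were treated with compound at 6 final concentrations from 10 μM to 3.0 nM for 6 days at 37 °C, and viability was read by CellTiter Glo luminescence. IC50 came from Sigmoid-Emax nonlinear regression, normalized between DMSO-treated and cell-free wells.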

[2] = test system: phosphorylation of ERK (Thr202/Tyr204); experiment: Test Example 2: ERK phosphorylation inhibition action in AsPC-1, Cell ELISA; type: cell-based, human; details: AsPC-1 cells, 0% = 1 μM trametinib
Outline: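 AsPC-1 cells (KRAS G12D) treated 24 h with compound (6 points, 10 μM to 3.0 nM final) in RPMI 1640/10% FBS. Fixed with glyoxal; pERK Thr202/Tyr204 detected by In-Cell ELISA with 800 nm fluorescence. IC50 by Sigmoid-Emax regression, with DMSO set to 100% and 1 μM trametinib to 0%.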

[3] = Homo sapiens, ASPC1, 144 h, read-out: IC50
[4] = Homo sapiens, ASPC1, 24 h, read-out: IC50

SMILES	IC50 ([1]; Homo sapiens, ASPC1, 144 h) [nM]	IC50 ([2]; Homo sapiens, ASPC1, 24 h) [nM]	also measured
CO[C@@H](C)[C@H](C)Oc1nc(N2C[C@@H]3C[C@H]2CN3)c2cc(C3CC3)c(-c3c(C)c(F)cc4[nH]ncc34)c(OCc3ccc(-c4cn([C@H](C(=O)N5C[C@H](O)C[C@H]5C(=O)N[C@@H](CO)c5ccc(-c6scnc6C)cc5)C(C)C)nn4)cc3)c2n1 [Example 41]	31	17	
Cc1ncsc1-c1ccc([C@H](CO)NC(=O)[C@@H]2C[C@@H](O)CN2C(=O)[C@H](C(C)C)n2cc(-c3ccc(COc4c(-c5c(C)c(F)cc6[nH]ncc56)c(C5CC5)cc5c(N6C[C@@H]7C[C@H]6CN7)nc(O[C@@H](C)[C@H](C)O)nc45)cc3)nn2)cc1 [Example 42]	46	22	
CC[C@@H](C)Oc1nc(N2C[C@@H]3C[C@H]2CN3)c2cc(C3CC3)c(-c3c(C)c(F)cc4[nH]ncc34)c(OCc3ccc(-c4cn([C@H](C(=O)N5C[C@H](O)C[C@H]5C(=O)N[C@@H](CO)c5ccc(-c6scnc6C)cc5)C(C)C)nn4)cc3)c2n1 [Example 43]	16	11	
Cc1ncsc1-c1ccc([C@H](CO)NC(=O)[C@@H]2C[C@@H](O)CN2C(=O)[C@H](C(C)C)n2cc(-c3ccc(COc4c(-c5c(C)c(F)cc6[nH]ncc56)c(C5CC5)cc5c(N6C[C@@H]7C[C@H]6CN7)nc(OCC67CCCN6CCC7)nc45)cc3)nn2)cc1 [Example 44]	266	95	
Cc1ncsc1-c1ccc([C@H](CO)NC(=O)[C@@H]2C[C@@H](O)CN2C(=O)[C@H](C(C)C)n2cc(-c3ccc(COc4c(-c5c(C)c(F)cc6[nH]ncc56)c(C5CC5)cc5c(N6C[C@@H]7C[C@H]6CN7)nc(O[C@H](C)CN6CCOCC6)nc45)cc3)nn2)cc1 [Example 45]	20	11	
Cc1ncsc1-c1ccc([C@H](CO)NC(=O)[C@@H]2C[C@@H](O)CN2C(=O)[C@H](C(C)C)n2cc(-c3ccc(COc4c(-c5c(C)c(F)cc6[nH]ncc56)c(C5CC5)cc5c(N6C[C@@H]7C[C@H]6CN7)nc(O[C@H](C)CN(C)C)nc45)cc3)nn2)cc1 [Example 46]	56	22	
CO[C@H](C)COc1nc(N2C[C@@H]3C[C@H]2CN3)c2cc(C3CC3)c(-c3c(C)c(F)cc4[nH]ncc34)c(OCc3ccc(-c4cn([C@H](C(=O)N5C[C@H](O)C[C@H]5C(=O)N[C@@H](CO)c5ccc(-c6scnc6C)cc5)C(C)C)nn4)cc3)c2n1 [Example 47]	22	18	
CO[C@@H](C)COc1nc(N2C[C@@H]3C[C@H]2CN3)c2cc(C3CC3)c(-c3c(C)c(F)cc4[nH]ncc34)c(OCc3ccc(-c4cn([C@H](C(=O)N5C[C@H](O)C[C@H]5C(=O)N[C@@H](CO)c5ccc(-c6scnc6C)cc5)C(C)C)nn4)cc3)c2n1 [Example 48]	20	8	
Cc1ncsc1-c1ccc([C@H](CO)NC(=O)[C@@H]2C[C@@H](O)CN2C(=O)[C@H](C(C)C)n2cc(-c3ccc(COc4c(-c5c(C)c(F)cc6[nH]ncc56)c(C5CC5)cc5c(N6C[C@@H]7C[C@H]6CN7)nc(OC6CCOCC6)nc45)cc3F)nn2)cc1 [Example 49, (4R)-1-[(2S)-2-(4-{4-[({6-cyclopropyl-4-[(1S,4S)-2,5-diazabicyclo[2.2.1]heptan-2-yl]-7-(6-fluoro-5-methyl-1H-indazol-4-yl)-2-[(oxan-4-yl)oxy]quinazolin-8-yl}oxy)methyl]-2-fluorophenyl}-1H-1,2,3-triazol-1-yl)-3-methylbutanoyl]-4-hydroxy-N-{(1R)-2-hydroxy-1-[4-(4-methyl-1,3-thiazol-5-yl)phenyl]ethyl}-L-prolinamide]	46	21	
Cc1ncsc1-c1ccc([C@H](CO)NC(=O)[C@@H]2C[C@@H](O)CN2C(=O)[C@H](C(C)C)n2cc(-c3ccc(COc4c(-c5c(C)c(F)cc6[nH]ncc56)c(C5CC5)cc5c(N6C[C@@H]7C[C@H]6CN7)nc(OC[C@@H]6CCOC6)nc45)cc3)nn2)cc1 [Example 50]	21	10	
Cc1ncsc1-c1ccc([C@H](CO)NC(=O)[C@@H]2C[C@@H](O)CN2C(=O)[C@H](C(C)C)n2cc(-c3ccc(COc4c(-c5c(C)c(F)cc6[nH]ncc56)c(C5CC5)cc5c(N6C[C@@H]7C[C@H]6CN7)nc(OC[C@H]6CCOC6)nc45)cc3)nn2)cc1 [Example 51]	27	14	
Cc1ncsc1-c1ccc([C@H](CO)NC(=O)[C@@H]2C[C@@H](O)CN2C(=O)[C@H](C(C)C)n2cc(-c3ccc(COc4c(-c5c(C)c(F)cc6[nH]ncc56)c(C5CC5)cc5c(N6C[C@@H]7C[C@H]6CN7)nc(OC[C@H]6CCOC6)nc45)cc3)nn2)cc1 [Example 52]			IC50 [1]: 31 nM; IC50 ([2]; 24 hours): 11 nM
Cc1ncsc1-c1ccc([C@H](CO)NC(=O)[C@@H]2C[C@@H](O)CN2C(=O)[C@H](C(C)C)n2cc(-c3ccc(COc4c(-c5c(C)c(F)cc6[nH]ncc56)c(C5CC5)cc5c(N6C[C@@H]7C[C@H]6CN7)nc(OC[C@@H]6CCOC6)nc45)cc3)nn2)cc1 [Example 53]			IC50 [1]: 23 nM; IC50 ([2]; 24 hours): 10 nM
COC[C@H](C)Oc1nc(N2C[C@@H]3C[C@H]2CN3)c2cc(C3CC3)c(-c3c(C)c(F)cc4[nH]ncc34)c(OCc3ccc(-c4cn([C@H](C(=O)N5C[C@H](O)C[C@H]5C(=O)N[C@@H](CO)c5ccc(-c6scnc6C)cc5)C(C)C)nn4)cc3)c2n1 [Example 54]	24	18	
COC[C@H](CN1CCOCC1)Oc1nc(N2C[C@@H]3C[C@H]2CN3)c2cc(C3CC3)c(-c3c(C)c(F)cc4[nH]ncc34)c(OCc3ccc(-c4cn([C@H](C(=O)N5C[C@H](O)C[C@H]5C(=O)N[C@@H](CO)c5ccc(-c6scnc6C)cc5)C(C)C)nn4)cc3)c2n1 [Example 55]			IC50 [1, 3]: 76 nM; IC50 [2, 4]: 38 nM
Cc1ncsc1-c1ccc([C@H](CO)NC(=O)[C@@H]2C[C@@H](O)CN2C(=O)[C@H](C(C)C)n2cc(-c3ccc(COc4c(-c5c(C)c(F)cc6[nH]ncc56)c(C5CC5)cc5c(N6C[C@@H]7C[C@H]6CN7)nc(OC[C@@H]6CCCN6C)nc45)cc3)nn2)cc1 [Example 57]			IC50 [1, 3]: 90 nM; IC50 [2, 4]: 65 nM
CO[C@@H](C)COc1nc(N2C[C@@H]3C[C@H]2CN3)c2cc(C3CC3)c(-c3c(C)c(F)cc4[nH]ncc34)c(OCc3ccc(-c4cn([C@H](C(=O)N5C[C@H](O)C[C@H]5C(=O)N[C@@H](CO)c5ccc(F)cc5)C(C)C)nn4)cc3)c2n1 [Example 58]	80	25	
CO[C@@H](C)COc1nc(N2C[C@@H]3C[C@H]2CN3)c2cc(C3CC3)c(-c3c(C)c(F)cc4[nH]ncc34)c(OCc3ccc(-c4cn([C@H](C(=O)N5C[C@H](O)C[C@H]5C(=O)N[C@@H](CO)c5ccc(N6CCOC6=O)cc5)C(C)C)nn4)cc3)c2n1 [Example 59]	70	26	
Cc1ncsc1-c1ccc([C@H](CO)NC(=O)[C@@H]2C[C@@H](O)CN2C(=O)[C@H](C(C)C)n2cc(-c3ccc(COc4c(-c5c(C)c(F)cc6[nH]ncc56)c(C5CC5)cc5c(N6C[C@@H]7C[C@H]6CN7)nc(OC[C@H]6CCCN6C)nc45)cc3)nn2)cc1 [Example 60]	127	50	
Cc1ncsc1-c1ccc([C@H](CO)NC(=O)[C@@H]2C[C@@H](O)CN2C(=O)[C@H](C(C)C)n2cc(-c3ccc(COc4c(-c5c(C)c(F)cc6[nH]ncc56)c(C5CC5)cc5c(N6C[C@@H]7C[C@H]6CN7)nc(OCC6(CO)CC6)nc45)cc3)nn2)cc1 [Example 61]	61	24	
COCC1(COc2nc(N3C[C@@H]4C[C@H]3CN4)c3cc(C4CC4)c(-c4c(C)c(F)cc5[nH]ncc45)c(OCc4ccc(-c5cn([C@H](C(=O)N6C[C@H](O)C[C@H]6C(=O)N[C@@H](CO)c6ccc(-c7scnc7C)cc6)C(C)C)nn5)cc4)c3n2)CC1 [Example 62]	34	15	
Cc1c(F)cc2[nH]ncc2c1-c1c(C2CC2)cc2c(N3C[C@@H]4C[C@H]3CN4)nc(OC3CCOCC3)nc2c1OCc1ccc(-c2cn([C@H](C(=O)N3C[C@H](O)C[C@H]3C(=O)N[C@@H](CO)c3cccc(F)c3)C(C)C)nn2)cc1 [Example 63]	133	72	
Cc1ncsc1-c1ccc([C@H](CO)NC(=O)[C@@H]2C[C@@H](O)CN2C(=O)[C@H](C(C)C)n2cc(-c3ccc(COc4c(-c5c(C)c(F)cc6[nH]ncc56)c(C5CC5)cc5c(N6C[C@@H]7C[C@H]6CN7)nc(OC[C@H](C)N6CCCC6)nc45)cc3)nn2)cc1 [Example 64]	245	80	
Cc1ncsc1-c1ccc([C@H](CO)NC(=O)[C@@H]2C[C@@H](O)CN2C(=O)[C@H](C(C)C)n2cc(-c3ccc(COc4c(-c5c(C)c(F)cc6[nH]ncc56)c(C5CC5)cc5c(N6C[C@@H]7C[C@H]6CN7)nc(OC[C@H](C)N6CCOCC6)nc45)cc3)nn2)cc1 [Example 65]	45	11	

From patent US20250340561A1, “QUINAZOLINE COMPOUND FOR INDUCING DEGRADATION OF G12D MUTANT KRAS PROTEIN” (Astellas Pharma Inc., priority 2021, published 2025)
